Test results as given in patent US5446065A, “Sulfonamides of phenylalkylamines or phenoxyalkylamines processes for their preparation and medicaments containing these compounds” (Boehringer Mannheim GmbH, priority 1990, dated 1995).

Legend:
[1] = test system: U 46619-caused lung embolism; experiment: Prevention of the U 46619-caused lung embolism (survival); type: in vivo, male NMRI mice; conditions: po, mouse, stomach probe, U 46619 injected 4 h later (800-1000 μg/kg, tail vein), read-out: survival rate of mouse 1 mg/kg after 4 h
Method: 2. Prevention of the U 46619-caused lung embolism
Male NMRI mice of about 25 g body weight are used. The test substance is suspended in 1% methyl cellulose solution and administered to the experimental animals by means of a stomach probe. The provocation test consists in that a dose lethal for the control animals (800-1000 μg/kg) of the thromboxane mimetic (U 46619 of the firm Upjohn) is rapidly injected into the tail vein. The period of the specific antagonistic action is tested in that the animals are pre-treated with 1 mg/kg of the various test substances and the injection of U 46619 takes place after 4 h. The survival rate indicates what percent of the animals used survive the injection of the thromboxane mimetic.

[2] = test system: U46619-induced bronchospasm of the guinea pig; experiment: Inhibition of the U 46619-induced bronchospasm of the anaesthetised guinea pig; type: in vivo; conditions: Cavia porcellus, iv, 10 min, test substance i.v., 10 μg/kg U 46619 i.v., AUC over 10 min, read-out: ID50 of U46619-induced bronchospasm of the guinea pig
Method: 3. Inhibition of the U 46619-induced bronchospasm of the anaesthetised guinea pig
Guinea pigs are anaesthetised with narcoren and provided with a jugular vein catheter and a tracheal canula. The animals are mechanically respirated with atmospheric air with 1 ml/100 g body weight. The tracheal canula is connected via a three-way stopcock with a Stathem pressure element which takes up the pressure resulting by the contraction of the smooth musculature in the trachea and passes on to a recorder via a measuring bridge. After achievement of a constant basal tonus, the animals receive 10 μg/kg U 46619 i.v. administered via the jugular vein catheter. The dose induces a rapidly increasing bronchospasm which, after about 10 minutes, again subsides and is very readily reproducable. After 15 minutes follows a second administration of 10 μg/kg U 46619, in the course of which, after 5 minutes, the test substance is given i.v. in various doses. After a further 15 minutes, the same dose of U 46619 is again injected. The areas under the curve over 10 min of the administration 1 and 3 are determined planimetrically on a Kontron-Videoplan unit and the bronchospasm after administration 3 calculated in percentage of the bronchospasm after administration 1. The ID50 of the test substance can be determined from the quotients.

[3] = test system: pre-contracted isolated rat aortas; experiment: TX-antagonistic action: inhibition of contraction of the isolated rat aorta ring pre-contracted with U 46619; type: cell-based; conditions: aorta rings precontracted with 0.3 μmol/l U 46619, cumulative addition, 37° C.
Method: 1. TX-antagonistic action on the isolated rat sorts ring pre-contracted with U 46619
The isolated rat sorts freed from surrounding connective tissue is cut up into equally wide rings and superinfused in a 10 ml organ bath with Krebs-Hanseleit buffer at 37° C. After about 45 min., equilibration time, the sorts rings are precontracted with 0.3 μmol/l U 46619, a stable analogue of the prostaglandin endoperoxide PGH2 (Upjohn & Co., Kalamazoo, USA). U 46619 was characterised as selective thromboxane mimetic (Coleman et al., Brit. J. Pharmacol. 68, 127P, 1980). As soon as a stable plateau is reached (after about 15 min.), the test substance is added cumulatively directly into the organ bath to the aorta ring, beginning with 10 nmol/l, until either an end concentration of 100 μmol/l is reached or the contraction is completely antagonised. There is calculated the particular percentage inhibition of the contraction by the test substance. From the concentration-action curves is determined the IC50, i.e. the half maximum inhibiting concentration.

| Compound | responders at 1 mg/kg [1] [%] | ED50 [2] [mg/kg] | IC50 [3] [nM] |
| --- | --- | --- | --- |
| O=C(COc1cccc(CCNS(=O)(=O)c2ccc(Cl)cc2)c1)N1CCCCC1 [Ex. 1 d, 3-[2-(4-chlorophenylsulphonylamino)-ethyl]-phenoxyacetylpiperidide] | 100 | 0.5 | 3400 |
| O=C(COc1cccc(CCNS(=O)(=O)c2ccc(Cl)cc2)c1)NCCO [Ex. 1 f, 3-[2-(4-chlorophenylsulphonylamino)-ethyl]-phenoxyacetic acid (2-hydroxyethylamide)] | 100 | 0.02 | 1600 |
| O=C(COc1cccc(CCNS(=O)(=O)c2ccc(Cl)cc2)c1)N(CCO)CCO [Ex. 1 g, 3-[2-(4-chlorophenylsulphonylamino)-ethyl]-phenoxyacetic acid 2-[bis-(2-hydroxyethyl)-amide]] | 100 | 0.04 | 1600 |
| O=C(COc1ccc(CCNS(=O)(=O)c2ccc(Cl)cc2)cc1)Nc1cccnc1 [Ex. 1 r, 4-[2-(4-chlorophenylsulphonylamino)-ethyl]-phenoxyacetic acid (3-pyridyl)-amide] | 90 | 0.02 | 1000 |
| CCNC(=O)COc1cccc(CCNS(=O)(=O)c2ccc(Cl)cc2)c1 [Ex. 2 a, 3-[2-(4-chlorophenylsulphonylamino)-ethyl]-phenoxyacetic acid ethylamide] | 100 | 0.01 | 1800 |
| NCCCc1ccc(CCNS(=O)(=O)c2ccc(Cl)cc2)cc1 [Ex. 4 m, 1-[4-[2-(4-chlorophenylsulphonylamino)-ethyl]-phenyl]-3-aminopropane] | 100 | 0.05 | 3000 |
| NCCCCc1ccc(CCNS(=O)(=O)c2ccc(Cl)cc2)cc1 [Ex. 4 s, 1-[4-[2-(4-chlorophenylsulphonylamino)-ethyl]-phenyl]-4-aminobutane] | 90 | 0.1 | 2600 |
| NCCOc1cccc(CCNS(=O)(=O)c2ccc(Cl)cc2)c1 [Ex. 4, 1-[3-[2-(4-Chlorophenylsulphonylamino)-ethyl]-phenoxy]-2-aminoethane] | 100 | 0.01 | 340 |
| NCCc1ccc(CCNS(=O)(=O)c2ccc(Cl)cc2)cc1 [Ex. 5, 1-[4-[2-(4-Chlorophenylsulphonylamino)-ethyl]-phenyl]-2-aminoethane] | 100 | 0.05 | 100 |
